Here are results for 6 compounds from ChEMBL document CHEMBL3272143, “Synthesis of heteroaromatic potential beta-adrenergic antagonists by the glycidol route” (1978).

Common to all, as to type: functional
Test [1] has as its system Canis familiaris. Description: Inhibition of isoproterenol-induced increase in heart rate in bilaterally vagotomized open chest mongrel dog model at 0.1 mg/kg, iv administered 10 to 20 mins prior to and following isoproterenol challenge. The note with it: Canis lupus familiaris.
In test [2] the test system is Canis familiaris. The test is described as follows: Inhibition of isoproterenol-induced increase in heart rate in bilaterally vagotomized open chest mongrel dog model at 0.42 mg/kg, iv administered 10 to 20 mins prior to and following isoproterenol challenge. The note with it: Canis lupus familiaris.
For test [3], the system named is Canis familiaris. The test is described as follows: Inhibition of isoproterenol-induced increase in heart rate in bilaterally vagotomized open chest mongrel dog model at 1.42 mg/kg, iv administered 10 to 20 mins prior to and following isoproterenol challenge. The note with it: Canis lupus familiaris.
In test [4] the test system is Canis familiaris. Description: Inhibition of isoproterenol-induced increase in heart rate in bilaterally vagotomized open chest mongrel dog model at 4.58 mg/kg, iv administered 10 to 20 mins prior to and following isoproterenol challenge. Conditions: Canis lupus familiaris.
Test [5] has as its system Canis familiaris. Description: Inhibition of isoproterenol-induced increase in heart rate in bilaterally vagotomized open chest mongrel dog model at 14.58 mg/kg, iv administered 10 to 20 mins prior to and following isoproterenol challenge. The note with it: Canis lupus familiaris.
Test [6] has as its system Canis familiaris. The test is described as follows: Inhibition of isoproterenol-induced decrease in diastolic blood pressure in bilaterally vagotomized open chest mongrel dog model at 0.1 mg/kg, iv administered 10 to 20 mins prior to and following isoproterenol challenge. The note with it: Canis lupus familiaris, Artery.
Test [7] relates to Canis familiaris. The test is described as follows: Inhibition of isoproterenol-induced decrease in diastolic blood pressure in bilaterally vagotomized open chest mongrel dog model at 0.42 mg/kg, iv administered 10 to 20 mins prior to and following isoproterenol challenge. The note with it: Canis lupus familiaris, Artery.
Test [8] relates to Canis familiaris. The test is described as follows: Inhibition of isoproterenol-induced decrease in diastolic blood pressure in bilaterally vagotomized open chest mongrel dog model at 1.42 mg/kg, iv administered 10 to 20 mins prior to and following isoproterenol challenge. The note with it: Canis lupus familiaris, Artery.
Test [9] has as its system Canis familiaris. The test is described as follows: Inhibition of isoproterenol-induced decrease in diastolic blood pressure in bilaterally vagotomized open chest mongrel dog model at 4.58 mg/kg, iv administered 10 to 20 mins prior to and following isoproterenol challenge. Conditions: Canis lupus familiaris, Artery.
The test system of test [10] is Canis familiaris. The test is described as follows: Inhibition of isoproterenol-induced decrease in diastolic blood pressure in bilaterally vagotomized open chest mongrel dog model at 14.58 mg/kg, iv administered 10 to 20 mins prior to and following isoproterenol challenge. The note with it: Canis lupus familiaris, Artery.
Test [11] has as its system Canis familiaris. Description: Inhibition of isoproterenol-induced increase in heart rate in iv dosed bilaterally vagotomized open chest mongrel dog model administered 10 to 20 mins prior to and following isoproterenol challenge. Conditions: Canis lupus familiaris.
Test [12] relates to Canis familiaris. Description: Inhibition of isoproterenol-induced decrease in diastolic blood pressure in iv dosed bilaterally vagotomized open chest mongrel dog model administered 10 to 20 mins prior to and following isoproterenol challenge. Conditions: Canis lupus familiaris, Artery.
The test system of test [13] is Canis familiaris. The test is described as follows: Inhibition of isoproterenol-induced increase in heart rate in bilaterally vagotomized open chest mongrel dog model at 0.03 mg/kg, iv administered 10 to 20 mins prior to and following isoproterenol challenge. Conditions: Canis lupus familiaris.
For test [14], the system named is Canis familiaris. Description: Inhibition of isoproterenol-induced increase in heart rate in bilaterally vagotomized open chest mongrel dog model at 0.13 mg/kg, iv administered 10 to 20 mins prior to and following isoproterenol challenge. Conditions: Canis lupus familiaris.
Test [15] concerns Canis familiaris. The test is described as follows: Inhibition of isoproterenol-induced increase in heart rate in bilaterally vagotomized open chest mongrel dog model at 0.45 mg/kg, iv administered 10 to 20 mins prior to and following isoproterenol challenge. Conditions: Canis lupus familiaris.
In test [16] the test system is Canis familiaris. The test is described as follows: Inhibition of isoproterenol-induced increase in heart rate in bilaterally vagotomized open chest mongrel dog model at 1.45 mg/kg, iv administered 10 to 20 mins prior to and following isoproterenol challenge. Conditions: Canis lupus familiaris.
Test [17] concerns Canis familiaris. The test is described as follows: Inhibition of isoproterenol-induced increase in heart rate in bilaterally vagotomized open chest mongrel dog model at 4.61 mg/kg, iv administered 10 to 20 mins prior to and following isoproterenol challenge. Conditions: Canis lupus familiaris.
The subject of test [18] is Canis familiaris. Description: Inhibition of isoproterenol-induced decrease in diastolic blood pressure in bilaterally vagotomized open chest mongrel dog model at 0.03 mg/kg, iv administered 10 to 20 mins prior to and following isoproterenol challenge. The note with it: Canis lupus familiaris, Artery.
The subject of test [19] is Canis familiaris. The test is described as follows: Inhibition of isoproterenol-induced decrease in diastolic blood pressure in bilaterally vagotomized open chest mongrel dog model at 0.13 mg/kg, iv administered 10 to 20 mins prior to and following isoproterenol challenge. Conditions: Canis lupus familiaris, Artery.
In test [20] the test system is Canis familiaris. The test is described as follows: Inhibition of isoproterenol-induced decrease in diastolic blood pressure in bilaterally vagotomized open chest mongrel dog model at 0.45 mg/kg, iv administered 10 to 20 mins prior to and following isoproterenol challenge. Conditions: Canis lupus familiaris, Artery.
In test [21] the test system is Canis familiaris. Description: Inhibition of isoproterenol-induced decrease in diastolic blood pressure in bilaterally vagotomized open chest mongrel dog model at 1.45 mg/kg, iv administered 10 to 20 mins prior to and following isoproterenol challenge. Conditions: Canis lupus familiaris, Artery.
In test [22] the test system is Canis familiaris. The test is described as follows: Inhibition of isoproterenol-induced decrease in diastolic blood pressure in bilaterally vagotomized open chest mongrel dog model at 4.61 mg/kg, iv administered 10 to 20 mins prior to and following isoproterenol challenge. Conditions: Canis lupus familiaris, Artery.

SMILES strings stand for the structures.

One may read the inhibition in vivo as the change of the read-out against control, counted positive when it falls. A higher inhibition in vivo goes with strong suppression. A word on the ED50: it is the dose at which the effect has come halfway, by size or by number of responders. The low end stands for an effect at a small dose, the high end for a need for a large dose. For `Cc1nsc(OCC(O)CNC(C)(C)C)n1` (configuration not stated), the inhibition in vivo at 0.1 mg/kg stood at 15% in the test on Canis familiaris [1] and 7.7% with Canis familiaris [6]. Besides, the inhibition in vivo at 0.42 mg/kg came out at 24.2% in the test with Canis familiaris [2] and 12.8% in the test with Canis familiaris [7]. The inhibition in vivo at 1.42 mg/kg in the test with Canis familiaris [3] came to 39.5%; in the test on Canis familiaris [8] it was 35.5%. In addition, the inhibition in vivo at 4.58 mg/kg is 59.8% in the test with Canis familiaris [4] and 55.5% with Canis familiaris [9]. The figures for the inhibition in vivo at 14.58 mg/kg in the test with Canis familiaris [5] and in the test with Canis familiaris [10] were 92.3% and 85.3%, respectively. Further, the ED50 turned out to be 3.6 mg/kg with Canis familiaris [11] and 3.5 mg/kg in the test on Canis familiaris [12].

`CC(C)(C)NCC(O)COc1nc(-c2ccccc2)ns1` (configuration not stated): the inhibition in vivo at 0.1 mg/kg came to 7% in the test with Canis familiaris [1] and 3.7% in the test on Canis familiaris [6]. Besides, the inhibition in vivo at 0.42 mg/kg in the test on Canis familiaris [2] amounted to 5.7%; in the test with Canis familiaris [7] it was 5.3%. For the same compound, the inhibition in vivo at 1.42 mg/kg in the test with Canis familiaris [3] amounted to 9.5%; in the test on Canis familiaris [8], 16.5%. The values for the inhibition in vivo at 4.58 mg/kg in the test with Canis familiaris [4] and in the test on Canis familiaris [9] were 23.8% and 41.5%, respectively. Also, the inhibition in vivo at 14.58 mg/kg was 68% in the test with Canis familiaris [5] and 100% in the test on Canis familiaris [10]. In addition, the ED50 in the test with Canis familiaris [11] was 19.3 mg/kg; in the test on Canis familiaris [12], 4.9 mg/kg.

In the case of `CC(C)(C)NCC(O)COc1nnnn1-c1ccccc1` (configuration not stated), the results for the inhibition in vivo at 0.1 mg/kg in the test on Canis familiaris [1] and in the test on Canis familiaris [6] were 5.7% and 6.7%, respectively. For the same compound, the inhibition in vivo at 0.42 mg/kg with Canis familiaris [2] is 10.5%; in the test with Canis familiaris [7], 21.2%. Besides, the inhibition in vivo at 1.42 mg/kg in the test with Canis familiaris [3] amounted to 32.5%; in the test with Canis familiaris [8], 44.8%. Moreover, the inhibition in vivo at 4.58 mg/kg was found to be 63% with Canis familiaris [4] and 76.2% in the test with Canis familiaris [9]. Also, the figures for the inhibition in vivo at 14.58 mg/kg in the test with Canis familiaris [5] and with Canis familiaris [10] were 91% and 98.7%, respectively. Further, the ED50 in the test on Canis familiaris [11] came out at 3 mg/kg; in the test on Canis familiaris [12] it was 1.5 mg/kg.

With `CC(C)(C)NCC(O)COc1ncns1` (configuration not stated), the inhibition in vivo at 0.1 mg/kg with Canis familiaris [1] is 23.5%; in the test on Canis familiaris [6] it was 3%. The inhibition in vivo at 0.42 mg/kg was determined as 49.5% in the test with Canis familiaris [2] and 1% in the test with Canis familiaris [7]. For the same compound, the figures for the inhibition in vivo at 1.42 mg/kg in the test with Canis familiaris [3] and in the test with Canis familiaris [8] were 70% and 13.5%, respectively. Further, the values for the inhibition in vivo at 4.58 mg/kg with Canis familiaris [4] and in the test with Canis familiaris [9] were 91% and 50%, respectively. Moreover, the inhibition in vivo at 14.58 mg/kg in the test with Canis familiaris [5] was 97.5%; in the test with Canis familiaris [10], 76.5%. Further, the results for the ED50 in the test with Canis familiaris [11] and in the test with Canis familiaris [12] were 0.4 mg/kg and 5.7 mg/kg, respectively.

In the case of `CC(C)NCC(O)COc1cccc2ccccc12` (configuration not stated) [PROPRANOLOL], the figures for the ED50 in the test with Canis familiaris [11] and with Canis familiaris [12] were 0.09 mg/kg and 0.06 mg/kg, respectively. Further, the inhibition in vivo at 0.03 mg/kg in the test on Canis familiaris [13] worked out at 24.7%; in the test with Canis familiaris [18], 40.5%. The inhibition in vivo at 0.13 mg/kg with Canis familiaris [14] turned out to be 62%; in the test with Canis familiaris [19] it was 63.5%. Besides, the figures for the inhibition in vivo at 0.45 mg/kg with Canis familiaris [15] and with Canis familiaris [20] were 85.2% and 80.8%, respectively. Also, the inhibition in vivo at 1.45 mg/kg in the test on Canis familiaris [16] came out at 95.8%; in the test on Canis familiaris [21] it was 90.7%. The inhibition in vivo at 4.61 mg/kg turned out to be 98.4% with Canis familiaris [17] and 96.6% in the test with Canis familiaris [22].

As for `CC(C)NCC(O)COc1cc(Cl)nc(-c2ccccc2)n1` (configuration not stated), the inhibition in vivo at 0.1 mg/kg is 3% with Canis familiaris [1] and 5% in the test with Canis familiaris [6]. Moreover, the inhibition in vivo at 0.42 mg/kg in the test with Canis familiaris [2] is 6%; in the test with Canis familiaris [7], 16.5%. Moreover, the inhibition in vivo at 1.42 mg/kg in the test on Canis familiaris [3] is 18%; with Canis familiaris [8] it was 10.3%. Moreover, the inhibition in vivo at 4.58 mg/kg was determined as 16.7% in the test with Canis familiaris [4] and 21% in the test with Canis familiaris [9]. Besides, the inhibition in vivo at 14.58 mg/kg came out at 49% in the test on Canis familiaris [5] and 19% with Canis familiaris [10]. In addition, the 50% effective dose (ED50) in the test with Canis familiaris [11] and in the test on Canis familiaris [12] was above 14.6 mg/kg in each case.
